Test [1] concerns the target T1, GIP-R (Homo sapiens, UniProt P48546).
T1 sequence (P48546 22-466): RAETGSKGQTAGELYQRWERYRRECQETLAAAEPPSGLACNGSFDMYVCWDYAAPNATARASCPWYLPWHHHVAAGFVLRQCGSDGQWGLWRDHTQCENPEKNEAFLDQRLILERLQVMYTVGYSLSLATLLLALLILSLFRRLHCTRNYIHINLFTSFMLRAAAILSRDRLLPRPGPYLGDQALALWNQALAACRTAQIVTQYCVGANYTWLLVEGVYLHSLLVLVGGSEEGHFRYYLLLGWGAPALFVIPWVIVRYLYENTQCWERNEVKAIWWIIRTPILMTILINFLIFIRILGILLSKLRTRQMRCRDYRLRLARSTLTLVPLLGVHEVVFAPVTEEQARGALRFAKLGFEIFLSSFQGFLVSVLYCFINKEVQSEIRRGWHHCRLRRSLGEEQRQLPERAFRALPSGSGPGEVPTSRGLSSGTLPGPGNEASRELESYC
The test is described as follows: HitHunter cAMP assay (GIP-R). To be noted: cAMP; for Emax: read-out: (Emax) GIP-R; for EC50: read-out: EC50 GIP-R/nM. In kind it is cell-based. The procedure, abridged:
(§1)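 cAMP accumulation read by luminescent HitHunter immunocompetition after 30 min room-temperature agonist stimulation. Agonists tested as 22-point twofold dilutions, in duplicate, on 10,000 cells/well in HBSS containing 625 μM IBMX, 10 mM HEPES and 0.2% BSA.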

Test [2] deals with GLP-1R (Homo sapiens, UniProt P43220). The test is described as follows: HitHunter cAMP assay (GLP-1R). It counts as cell-based. To be noted: cAMP; for Emax: read-out: (Emax) GLP-1R; for EC50: read-out: EC50 GLP-1R/nM. In outline:
as §1
For orientation: Changes in cAMP serve as a functional read-out for many G protein-coupled receptors.

Like-named read-outs stand apart in the source and are kept apart here.

Sequence of GLP-1R (P43220 24-463): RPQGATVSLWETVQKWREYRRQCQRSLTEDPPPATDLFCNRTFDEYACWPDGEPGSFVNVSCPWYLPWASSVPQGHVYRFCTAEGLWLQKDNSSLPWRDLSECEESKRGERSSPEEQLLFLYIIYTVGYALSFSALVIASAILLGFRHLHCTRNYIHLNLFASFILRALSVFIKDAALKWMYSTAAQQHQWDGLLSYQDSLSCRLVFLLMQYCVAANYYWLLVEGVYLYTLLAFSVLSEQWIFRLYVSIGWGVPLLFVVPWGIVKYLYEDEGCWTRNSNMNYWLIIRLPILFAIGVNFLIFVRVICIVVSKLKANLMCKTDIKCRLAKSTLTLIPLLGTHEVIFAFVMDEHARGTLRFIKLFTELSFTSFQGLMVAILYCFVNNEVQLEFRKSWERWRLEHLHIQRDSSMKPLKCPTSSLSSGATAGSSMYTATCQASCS

For `CCCCCCCCCCCCCCCC(=O)N[C@@H](CCC(=O)NCCCC[C@H](NC(=O)[C@H](CO)NC(=O)[C@@H]1CCCN1C(=O)[C@@H]1CCCN1C(=O)[C@@H]1CCCN1C(=O)[C@H](C)NC(=O)CNC(=O)[C@H](CO)NC(=O)[C@H](CO)NC(=O)[C@@H]1CCCN1C(=O)CNC(=O)CNC(=O)[C@H](C)NC(=O)[C@H](CC(C)C)NC(=O)[C@H](CC(C)C)NC(=O)[C@H](Cc1c[nH]c2ccccc12)NC(=O)[C@H](CC(N)=O)NC(=O)[C@@H](NC(=O)[C@H](Cc1ccccc1)NC(=O)[C@H](CCC(=O)O)NC(=O)C(C)(C)NC(=O)[C@H](C)NC(=O)[C@H](C)NC(=O)[C@H](CCC(N)=O)NC(=O)[C@H](CCCCN)NC(=O)[C@H](CC(=O)O)NC(=O)[C@H](CC(C)C)NC(=O)[C@H](Cc1ccc(O)cc1)NC(=O)[C@@H](NC(=O)[C@H](CO)NC(=O)[C@H](Cc1ccc(O)cc1)NC(=O)[C@H](CC(=O)O)NC(=O)[C@H](CO)NC(=O)[C@@H](NC(=O)[C@H](Cc1ccccc1)NC(=O)[C@@H](NC(=O)CNC(=O)[C@H](CCC(=O)O)NC(=O)CCNC(=O)CCCN1C(=O)c2ccccc2C1=O)[C@@H](C)O)[C@@H](C)O)[C@@H](C)CC)C(C)C)C(N)=O)C(=O)O` [Compound 115], the maximum response (Emax) in test [1] (Table 3) came out at 67%; in test [1] (Table 3A), 67%; in test [2] (Table 3), 91%; in test [2] (Table 3A) it was 91%. For the same compound, the EC50 in test [1] (Table 3), in test [1] (Table 3A), in test [2] (Table 3) and in test [2] (Table 3A) was 1 to 10 nM each time.
Regarding `CCCCCCCCCCCCCCCC(=O)N[C@@H](CCC(=O)NCCCC[C@H](NC(=O)[C@H](C)NC(=O)[C@H](C)NC(=O)[C@H](CCC(N)=O)NC(=O)[C@H](CCCCN)NC(=O)[C@H](CC(=O)O)NC(=O)[C@H](CC(C)C)NC(=O)[C@H](Cc1ccc(O)cc1)NC(=O)[C@@H](NC(=O)[C@H](CO)NC(=O)[C@H](Cc1ccc(O)cc1)NC(=O)[C@H](CC(=O)O)NC(=O)[C@H](CO)NC(=O)[C@@H](NC(=O)[C@H](Cc1ccccc1)NC(=O)[C@@H](NC(=O)CNC(=O)[C@H](CCC(=O)O)NC(=O)CSCC(=O)NCCN1C(=O)CSC1=O)[C@@H](C)O)[C@@H](C)O)[C@@H](C)CC)C(=O)N[C@@H](CCC(=O)O)C(=O)N[C@@H](Cc1ccccc1)C(=O)N[C@H](C(=O)N[C@@H](CC(N)=O)C(=O)N[C@@H](Cc1c[nH]c2ccccc12)C(=O)N[C@@H](CC(C)C)C(=O)N[C@@H](CC(C)C)C(=O)N[C@@H](C)C(=O)NCC(=O)NCC(=O)N1CCC[C@H]1C(=O)N[C@@H](CO)C(=O)N[C@@H](CO)C(=O)NCC(=O)N[C@@H](C)C(=O)N1CCC[C@H]1C(=O)N1CCC[C@H]1C(=O)N1CCC[C@H]1C(=O)N[C@@H](CO)C(=O)N[C@@H](CCCCN)C(N)=O)C(C)C)C(=O)O` [Compound 200], the Emax in test [1] (Table 3A) was 66%; in test [2] (Table 3A), 89%. Besides, the EC50 in test [1] (Table 3A) lay within 100 to 1000 nM; in test [2] (Table 3A), 10 to 100 nM.

As usually defined, the Emax is the maximal effect, on the per cent scale that the assay sets.
